Data reported in publication PMC9552003, “Chemosensory protein 4 is required for Bradysia odoriphaga to be olfactory attracted to sulfur compounds released from Chinese chives” (Frontiers in Physiology, 2022).
“And” between values parts separate entries of the source, which are not always exact repeats. Identical values can stand only once. Like-named read-outs stand apart in the source and are kept apart here.

Assays:
[1] = molecular target: recombinant BodoCSP4 (Bradysia odoriphaga, UniProt A0A2S0X9L0); test: biochemical; type: binding
Experimental: An F-380 fluorescence spectrophotometer (Tianjin, China) was used to measure the binding affinity of BodoCSP4 to the selected volatiles, using 1-N-phenyl-naphthylamine (1-NPN) as the fluorescent probe. […] Both 1-NPN and the volatile compounds were diluted in chromatographic-grade methanol to make 1 mM stock solutions. Recombinant BodoCSP4 was dissolved in 20 mM Tris-HCl (pH 7.4) and diluted to a 2 µM stock solution.

[2] = system: B. odoriphaga male adults; test: Y-tube olfactometer assay after dsRNA injection; type: in vivo, Bradysia odoriphaga; conditions: for effect of silencing of BodoCSP4 on behavioral response of male adults to the ligand: RNAi, Y-tube olfaction assays; for behavioral response (attraction to ligand vs hexane control): n = 60, chi-square test
Source text: The primer pairs dsCSP4 and dsGFP, containing the T7 promoter sequence, are listed in Table 1, and the T7 RiboMAX ™ Express RNAi System was used to synthesize double stranded RNAs (dsRNAs). The dsRNAs were microinjected into 3-day-old pupae of B. odoriphaga, and newly eclosed male adults were selected for dsRNA extraction and behavioral assays as previously described ([Yang et al., 2021b]; [Zhang et al., 2021]). According to the fluorescence binding results, after BodoCSP4 was silenced, a Y-tube olfactometer was used to assess the behavioral responses of B. odoriphaga male adults to the ligands diallyl disulfide, methyl allyl disulfide, and n-heptadecane as described in our previous report ([Yang et al., 2019]). In brief, a 10-μL solution of diallyl disulfide, methyl allyl disulfide, or n-heptadecane in hexane was placed on a strip (4 × 40 mm) of filter paper; after 10 s, the strip was placed at the end of one of the two Y-tube arms. As a control, a hexane-treated filter paper strip was placed at the end of the other arm. Two streams of clean air were passed through the Y-tube arms to the base, and one adult male that had been previously injected (at the pupal stage, 12 h before emergence) with dsBodoCSP4 or dsGFP was placed in the base of the Y-tube. If the male adult moved at least half way up one of the Y-tube arms, the result was recorded and considered an indication of attraction or repulsion depending on which arm was selected. Each of six treatment combinations (3 host plant volatiles with controls and dsBodoCSP4 or dsGFP microinjected adults) are represented by 60 replicate assays.
All RT-qPCR experiments were analyzed using one-way ANOVA followed by Tukey-HSD tests with SPSS 20.0 software. All RT-qPCR experiments were conducted using three independent biological replicates. In each of the six Y-tube olfactometer assays (3 ligands and controls without ligand × two types of microinjected B. odoriphaga adult males), behavioral responses to filter paper with or without ligand were analyzed by a chi-square test (χ 2).

[3] = system: B. odoriphaga male adults; design: method as in Li H. J. et al., 2007; conditions: extract from the abdomen of B. odoriphaga females; ref Li H. J. et al., 2007; cited from earlier work
[4] = system: B. odoriphaga male adults; design: method as in Zhang et al. (2021); conditions: ref Zhang et al. (2021); cited from earlier work
[5] = system: antennae of both male and female B. odoriphaga; design: method as in Yang et al., 2019; conditions: ref Yang et al., 2019; cited from earlier work
[6] = recombinant BodoCSP4, Supplemental Table 2, IC50, read-out: IC50
[7] = recombinant BodoCSP4, Supplemental Table 2, Ki, read-out: Ki
[8] = Ki, recombinant BodoCSP4, Supplemental Table 2, Ki
[9] = recombinant BodoCSP4, competitive with 1-NPN, values in text, read-out: binding affinity (Ki)

Sequence of recombinant BodoCSP4 (A0A2S0X9L0 entry or part of it): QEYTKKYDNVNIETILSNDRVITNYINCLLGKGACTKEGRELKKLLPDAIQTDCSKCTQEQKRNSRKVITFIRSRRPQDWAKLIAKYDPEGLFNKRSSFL

c1ccc(Nc2cccc3ccccc23)cc1 [1-NPN, N-phenyl-1-naphthylamine, reference compound]
Kd [1]: 1.08 µM

C=C(C)[C@H]1CC=C(C)CC1 [(R)-(+)-Limonene]
IC50 [1, 6]: > 50 µM
Ki [1, 7]: > 50 µM

C=C1CCC2CC1C2(C)C (centres unmarked) [ß-pinene]
IC50 [1, 6]: > 50 µM
Ki [1, 7]: > 50 µM

CCCCCCCCCCCC=O [Dodecyl aldehyde]
IC50 [1, 6]: > 50 µM
Ki [1, 7]: > 50 µM

CC/C=C\CCO [cis-3-Hexen-1-ol]
IC50 [1]: > 50 µM
Ki [1, 8]: > 50 µM

CCCCCCCCC [Nonane]
IC50 [1, 6]: > 50 µM
Ki [1, 7]: > 50 µM

CCCCCCCCC=O [nonanal]
IC50 [1, 6]: > 50 µM
Ki [1, 7]: > 50 µM

CC(=O)/C=C/C1=C(C)CCCC1(C)C [Beta-Ionone]
IC50 [1]: > 50 µM
Ki [1, 8]: > 50 µM

CC12CCC(CC1)C(C)(C)O2 [1,8-Cineole]
IC50 [1]: > 50 µM
Ki [1, 7]: > 50 µM

c1ccc2[nH]ccc2c1 [(H-11)indole]
IC50 [1, 6]: > 50 µM
Ki [1, 7]: > 50 µM

C=CC(C)(O)CCC=C(C)C (centres unmarked) [Linalool]
IC50 [1]: > 50 µM
Ki [1, 8]: > 50 µM

CCCCCCC=O [heptanal]
IC50 [1]: > 50 µM
Ki [1, 7]: > 50 µM

CCCCCCCCCCCCCCCCC [n-Heptadecane]
Ki [1, 9]: 6.85 µM and < 10 µM
effect of silencing of BodoCSP4 on behavioral response of male adults to the ligand [2]: significantly decreased
behavioral response (attraction to ligand vs hexane control) ([2]; dsBodoCSP4-treated adult males): no olfactory attraction
behavioral response (attraction to ligand vs hexane control) ([2]; dsGFP-treated adult males): attracted
behavioral response in male adults [3]: elicits a behavioral response

C=CCSSC [Methyl allyl disulfide]
effect of silencing of BodoCSP1 on behavioral response of male adults [4]: reduced the behavioral response
electrophysiological responses from the antennae [5]: strong electrophysiological responses
Ki [1, 9]: 5.71 µM and < 10 µM
effect of silencing of BodoCSP4 on behavioral response of male adults to the ligand [2]: did not decrease
behavioral response (attraction to ligand vs hexane control) ([2]; dsBodoCSP4-treated adult males): attracted
behavioral response (attraction to ligand vs hexane control) ([2]; dsGFP-treated adult males): attracted

CCCCCCCCCCCC [Dodecane]
IC50 [1, 6]: > 50 µM
Ki [1, 7]: > 50 µM

COC(=O)Cc1ccccc1 [Methyl phenylacetate]
IC50 [1]: > 50 µM
Ki [1, 8]: > 50 µM

CCCCC=O [Valeric aldehyde]
IC50 [1, 6]: > 50 µM
Ki [1, 7]: > 50 µM

CCCCCCCCCCCCCCCC [Hexadecane]
IC50 [1, 6]: > 50 µM
Ki [1, 7]: > 50 µM

C=CC(C)=CCC=C(C)C [Ocimene]
IC50 [1, 6]: > 50 µM
Ki [1, 7]: > 50 µM

C=C1CC/C=C(/C)CC[C@@H]2[C@@H]1CC2(C)C [ß-caryophyllene]
IC50 [1, 6]: > 50 µM
Ki [1, 7]: > 50 µM

CC(C)=CCCC(C)CCO (centres unmarked) [Citronellol]
IC50 [1, 6]: > 50 µM
Ki [1, 7]: > 50 µM

CC(=O)c1ccccc1 [Acetophenone]
IC50 [1]: > 50 µM
Ki [1, 7]: > 50 µM

CCCCOC(=O)CCC(C)=O [Butyl levulinate]
IC50 [1, 6]: > 50 µM
Ki [1, 7]: > 50 µM

CCCCCCCCCCCCCC [Tetradecane]
IC50 [1, 6]: > 50 µM
Ki [1, 7]: > 50 µM

C=CC(=O)OCCCC [Butyl Acrylate]
IC50 [1]: > 50 µM
Ki [1, 8]: > 50 µM

C=CCSSCC=C [Diallyl disulfide]
effect of silencing of BodoCSP1 on behavioral response of male adults [4]: reduced the behavioral response
electrophysiological responses from the antennae [5]: strong electrophysiological responses
Ki ([1]; binding affinity (Ki), recombinant BodoCSP4, competitive with 1-NPN, values in text): 5.71 µM and < 10 µM
effect of silencing of BodoCSP4 on behavioral response of male adults to the ligand [2]: significantly decreased
behavioral response (attraction to ligand vs hexane control) ([2]; dsBodoCSP4-treated adult males): no olfactory attraction
behavioral response (attraction to ligand vs hexane control) ([2]; dsGFP-treated adult males): attracted

O=Cc1ccccc1 [benzaldehyde]
IC50 [1]: > 50 µM
Ki [1, 8]: > 50 µM

CCCCC(C)=O [2-Hexanone]
IC50 [1]: > 50 µM
Ki [1, 8]: > 50 µM

CCCCCCCC=O [Octanal]
IC50 [1, 6]: > 50 µM
Ki [1, 7]: > 50 µM

Cc1ccc(C(C)C)cc1O [Carvaceol]
IC50 [1, 6]: > 50 µM
Ki [1, 7]: > 50 µM

C/C1=C\CC/C(C)=C/CC(C)(C)/C=C/C1 [a-Humulene]
IC50 [1, 6]: > 50 µM
Ki [1, 7]: > 50 µM

CCCCCCCCCC=O [Decanal]
IC50 [1, 6]: > 50 µM
Ki [1, 7]: > 50 µM
